Experiments:
[1] = tested on: Mycosphaerella Arachidis(Cercospora Arachidicola); assay: Mycosphaerella arachidis (Cercospora arachidicola) / liquid culture (early leaf spot); assay type: cell-based; conditions: PDB potato dextrose broth, 24° C., 4-5 days after application, read-out: disease control (inhibition of growth, photometrically)
Method: (§1) 11 Mycosphaerella Arachidis(Cercospora Arachidicola)/Liquid Culture (Early Leaf Spot) Conidia of the fungus from cryogenic storage were directly mixed into nutrient broth (PDB potato dextrose broth). After placing a DMSO solution of test compound into a 96-well microtiter plate, the nutrient broth containing the fungal spores was added. The test plates were incubated at 24° C. and the inhibition of growth was determined photometrically 4-5 days after application.

[2] = tested on: Fusarium Culmorum; assay: microbe, parasite or virus in culture; assay type: cell-based; conditions: read-out: disease control (inhibition of growth, photometrically)
[3] = tested on: Gaeumannomyces Graminis; assay: Gaeumannomyces graminis / liquid culture (take-all of cereals); assay type: cell-based; conditions: PDB potato dextrose broth, 24° C., 4-5 days after application, read-out: disease control (inhibition of growth, photometrically)
Method: 13 Gaeumannomyces Graminis/Liquid Culture (Take-all of Cereals) Mycelial fragments of the fungus from cryogenic storage were directly mixed into nutrient broth (PDB potato dextrose broth). After placing a DMSO solution of test compound into a 96-well microtiter plate, the nutrient broth containing the fungal spores is added. The test plates were incubated at 24° C. and the inhibition of growth was determined photometrically 4-5 days after application.

[4] = tested on: Glomerella Lagenarium(Colletotrichum Ladenarium); assay: Glomerella lagenarium (Colletotrichum lagenarium) / liquid culture (anthracnose); assay type: cell-based; conditions: PDB potato dextrose broth, 24° C., 3-4 days after application, read-out: disease control (inhibition of growth, photometrically)
Method: as §1, with “10 Glomerella Lagenarium(Colletotrichum Ladenarium)/Liquid” for “11 Mycosphaerella Arachidis(Cercospora Arachidicola)/Liquid”, “(Anthracnose)” for “(Early Leaf Spot)”, “measured” for “determined”, “3-4” for “4-5”

[5] = tested on: Plasmopara Viticola; assay: whole plant or invertebrate; assay type: in vivo; conditions: foliar, read-out: disease control
[6] = tested on: Pythium Ultimum; assay: Pythium ultimum / liquid culture (seedling damping off); assay type: cell-based; conditions: Globisporangium ultimum, potato dextrose broth, 24° C., 2-3 days after application, read-out: disease control (inhibition of growth, photometrically)
[7] = tested on: Thanatephorus Cucumeris(Rhizoctonia Solani); assay: Thanatephorus cucumeris (Rhizoctonia solani) / liquid culture (foot rot, damping-off); assay type: cell-based; conditions: PDB potato dextrose broth, 24° C., 3-4 days after application, read-out: disease control (inhibition of growth, photometrically)
Method: 16 Thanatephorus Cucumeris(Rhizoctonia Solani)/Liquid Culture (Foot Rot, Damping-Off) Mycelia fragments of a newly grown liquid culture of the fungus were directly mixed into nutrient broth (PDB potato dextrose broth). After placing a DMSO solution of the test compounds into a 96-well microtiter plate at an application rate of 200 ppm, the nutrient broth containing the fungal material was added. The test plates were incubated at 24° C. and the inhibition of growth was determined photometrically 3-4 days after application.

[8] = tested on: Mycosphaerella Graminicola(Septoria Tritici); assay: Mycosphaerella graminicola (Septoria tritici) / liquid culture (Septoria blotch); assay type: cell-based; conditions: Zymoseptoria tritici, PDB potato dextrose broth, 24° C., 4-5 days after application, read-out: disease control (inhibition of growth, photometrically)
Method: as §1, with “12” for “11”, “Graminicola(Septoria Tritici)/Liquid” for “Arachidis(Cercospora Arachidicola)/Liquid”, “(Septoria Blotch)” for “(Early Leaf Spot)”

[9] = tested on: Monographella Nivalis(Microdochium Nivale); assay: Monographella nivalis (Microdochium nivale) / liquid culture (foot rot cereals); assay type: cell-based; conditions: PDB potato dextrose broth, 24° C., 4-5 days after application, read-out: disease control (inhibition of growth, photometrically)
Method: as §1, with “14 Monographella Nivalis(Microdochium Nivale)/Liquid” for “11 Mycosphaerella Arachidis(Cercospora Arachidicola)/Liquid”, “(Foot Rot Cereals)” for “(Early Leaf Spot)”

[10] = tested on: Sclerotinia Sclerotiorum; assay: Sclerotinia sclerotiorum / liquid culture (cottony rot); assay type: cell-based; conditions: PDB potato dextrose broth, 24° C., 3-4 days after application, read-out: disease control (inhibition of growth, visually)
Method: 17 Sclerotinia Sclerotiorum/Liquid Culture (Cottony Rot) Mycelia fragments of a newly grown liquid culture of the fungus were directly mixed into nutrient broth (PDB potato dextrose broth). After placing a (DMSO) solution of the test compounds into a microtiter plate (96-well format) the nutrient broth containing the fungal material was added. The test plates were incubated at 24° C. and the inhibition of growth was determined visually 3-4 days after application.

[11] = tested on: Botryotinia Fuckeliana(Botrytis Cinerea); assay: Botryotinia fuckeliana (Botrytis cinerea) / liquid culture (gray mould); assay type: cell-based; conditions: Vogels broth, 24° C., 3-4 days after application, read-out: disease control (inhibition of growth, photometrically)
Method: as §1, with “9 Botryotinia Fuckeliana(Botrytis Cinerea)/Liquid” for “11 Mycosphaerella Arachidis(Cercospora Arachidicola)/Liquid”, “(Gray Mould)” for “(Early Leaf Spot)”, “(Vogels” for “(PDB potato dextrose”, “3-4” for “4-5”

[12] = tested on: Phaeosphaeria Nodorum (Septoria Nodorum); assay: Phaeosphaeria nodorum (Septoria nodorum) / wheat / leaf disc preventative (glume blotch); assay type: in vivo; conditions: Parastagonospora nodorum, foliar, wheat leaf segments cv Kanzler, inoculated 2 days after application, assessed 5-7 days after application, read-out: disease control
Method: 5 Phaeosphaeria Nodorum (Septoria Nodorum)/Wheat/Leaf Disc Preventative (Glume Blotch) Wheat leaf segments cv Kanzler were placed on agar in a 24-well plate and sprayed with formulated test compound diluted in water. The leaf disks were inoculated with a spore suspension of the fungus 2 days after application. The inoculated test leaf disks were incubated at 20° C. and 75% relative humidity under a light regime of 12/12 h (light/dark) in a climate cabinet and the activity of a compound was assessed as percent disease control compared to untreated when an appropriate level of disease damage appears in untreated check leaf disks (5-7 days after application).

| Compound | inhibition at 20 ppm [1] | inhibition at 20 ppm [2] | inhibition at 20 ppm [3] | inhibition at 20 ppm [4] | pest or weed control at 200 ppm [5] | inhibition at 20 ppm [6] | inhibition at 20 ppm [7] | inhibition at 20 ppm [8] | inhibition at 20 ppm [9] | melting point | inhibition at 20 ppm [10] | inhibition at 20 ppm [11] | pest or weed control at 200 ppm [12] |
| --- | --- | --- | --- | --- | --- | --- | --- | --- | --- | --- | --- | --- | --- |
| CCc1ccc(-c2cc3c(cc2Cl)COB3O)s1 [Compound 35] | ≥ 80% | ≥ 80% | ≥ 80% | ≥ 80% | ≥ 80% | ≥ 80% | ≥ 80% | ≥ 80% | ≥ 80% | – | – | – | – |
| Cc1nc(-c2cc3c(cc2F)COB3O)oc1C [Compound 32, 2-(5-fluoro-1-hydroxy-3H-2,1-benzoxaborol-6-yl)-4,5-dimethyl-oxazole] | – | – | – | – | – | ≥ 80% | – | – | ≥ 80% | 164 to 166 °C | – | – | – |
| OB1OCc2cc(F)c(-c3ccco3)cc21 [Compound 5] | ≥ 80% | ≥ 80% | ≥ 80% | ≥ 80% | ≥ 80% | ≥ 80% | ≥ 80% | ≥ 80% | ≥ 80% | 155 to 164 °C | ≥ 80% | ≥ 80% | – |
| Cn1nnc(-c2ccc3c(c2)B(O)OC3)n1 [Compound 31, 5-(1-hydroxy-3H-2,1-benzoxaborol-6-yl)-2-methyl-tetrazole] | ≥ 80% | – | – | ≥ 80% | – | ≥ 80% | – | – | ≥ 80% | 209 to 210 °C | – | – | – |
| OB1OCc2cc(Cl)c(-c3cocc3Br)cc21 [Compound 44] | ≥ 80% | ≥ 80% | ≥ 80% | ≥ 80% | ≥ 80% | ≥ 80% | ≥ 80% | ≥ 80% | ≥ 80% | – | ≥ 80% | ≥ 80% | – |
| Cc1ccc(-c2cc3c(cc2Cl)COB3O)o1 [Compound 36] | ≥ 80% | ≥ 80% | ≥ 80% | ≥ 80% | ≥ 80% | ≥ 80% | ≥ 80% | ≥ 80% | ≥ 80% | – | ≥ 80% | ≥ 80% | – |
| OB1OCc2cc(F)c(-c3cncc(Cl)n3)cc21 [Compound 57] | ≥ 80% | ≥ 80% | ≥ 80% | – | ≥ 80% | ≥ 80% | – | ≥ 80% | ≥ 80% | – | ≥ 80% | ≥ 80% | ≥ 80% |
| OB1OCc2cc(Cl)c(-c3cc4ccccc4[nH]3)cc21 [Compound 72] | ≥ 80% | ≥ 80% | ≥ 80% | ≥ 80% | ≥ 80% | ≥ 80% | ≥ 80% | ≥ 80% | ≥ 80% | – | – | – | – |
| OB1OCc2cc(Cl)c(-c3sccc3Br)cc21 [Compound 45] | ≥ 80% | ≥ 80% | ≥ 80% | ≥ 80% | ≥ 80% | ≥ 80% | ≥ 80% | ≥ 80% | ≥ 80% | – | ≥ 80% | ≥ 80% | – |
| COc1ncccc1-c1cc2c(cc1F)COB2O [Compound 81] | ≥ 80% | – | ≥ 80% | ≥ 80% | ≥ 80% | ≥ 80% | – | ≥ 80% | ≥ 80% | – | ≥ 80% | – | ≥ 80% |
| O=Cc1ccc(-c2cc3c(cc2Cl)COB3O)o1 [Compound 21, 5-(5-chloro-1-hydroxy-3H-2,1-benzoxaborol-6-yl)furan-2-carbaldehyde] | – | – | ≥ 80% | ≥ 80% | ≥ 80% | ≥ 80% | – | ≥ 80% | ≥ 80% | 145 to 165 °C | ≥ 80% | – | – |
| OB1OCc2cc(Cl)c(-c3cncc(Cl)n3)cc21 [Compound 68] | ≥ 80% | – | ≥ 80% | – | ≥ 80% | ≥ 80% | – | ≥ 80% | ≥ 80% | – | ≥ 80% | ≥ 80% | ≥ 80% |
| ON=Cc1ccc(-c2cc3c(cc2Cl)COB3O)o1 (single isomer, unassigned) [Compound 22, 5-(5-chloro-1-hydroxy-3H-2,1-benzoxaborol-6-yl)furan-2-carbaldehyde oxime] | – | – | – | ≥ 80% | – | ≥ 80% | – | – | ≥ 80% | 188 to 193 °C | – | – | – |
| OCc1ccc(-c2cc3c(cc2Cl)COB3O)o1 [Compound 40] | ≥ 80% | ≥ 80% | ≥ 80% | ≥ 80% | – | ≥ 80% | – | ≥ 80% | ≥ 80% | – | ≥ 80% | ≥ 80% | – |
| OB1OCc2cc(F)c(-c3ccoc3)cc21 [Compound 75] | ≥ 80% | ≥ 80% | ≥ 80% | ≥ 80% | ≥ 80% | ≥ 80% | ≥ 80% | ≥ 80% | ≥ 80% | – | ≥ 80% | ≥ 80% | – |
| OB1OCc2cc(Cl)c(-c3ccccn3)cc21 [Compound 8] | ≥ 80% | ≥ 80% | – | ≥ 80% | ≥ 80% | ≥ 80% | – | ≥ 80% | – | – | ≥ 80% | ≥ 80% | ≥ 80% |
| OB1OCc2cc(Cl)c(-c3ccoc3)cc21 [Compound 84] | ≥ 80% | ≥ 80% | ≥ 80% | ≥ 80% | ≥ 80% | ≥ 80% | ≥ 80% | ≥ 80% | ≥ 80% | – | ≥ 80% | – | – |
